This passage reports inhibition and IC50 results from patent US20030199692A1, “Propanoic acid derivatives that inhibit the binding of integrins to their receptors” (priority 1999, published 2003).

As usually defined, the inhibition is the percentage by which the read-out fell short of the control. In general, IC50 refers to the point on the concentration scale where inhibition reaches its midpoint.

The first assay deals with T1, α4β1 integrin (Homo sapiens, UniProt P05556+P13612).
T1 construct: endogenous in cells; host or cells: Ramos cells
T1 sequence (P13612 34-1032): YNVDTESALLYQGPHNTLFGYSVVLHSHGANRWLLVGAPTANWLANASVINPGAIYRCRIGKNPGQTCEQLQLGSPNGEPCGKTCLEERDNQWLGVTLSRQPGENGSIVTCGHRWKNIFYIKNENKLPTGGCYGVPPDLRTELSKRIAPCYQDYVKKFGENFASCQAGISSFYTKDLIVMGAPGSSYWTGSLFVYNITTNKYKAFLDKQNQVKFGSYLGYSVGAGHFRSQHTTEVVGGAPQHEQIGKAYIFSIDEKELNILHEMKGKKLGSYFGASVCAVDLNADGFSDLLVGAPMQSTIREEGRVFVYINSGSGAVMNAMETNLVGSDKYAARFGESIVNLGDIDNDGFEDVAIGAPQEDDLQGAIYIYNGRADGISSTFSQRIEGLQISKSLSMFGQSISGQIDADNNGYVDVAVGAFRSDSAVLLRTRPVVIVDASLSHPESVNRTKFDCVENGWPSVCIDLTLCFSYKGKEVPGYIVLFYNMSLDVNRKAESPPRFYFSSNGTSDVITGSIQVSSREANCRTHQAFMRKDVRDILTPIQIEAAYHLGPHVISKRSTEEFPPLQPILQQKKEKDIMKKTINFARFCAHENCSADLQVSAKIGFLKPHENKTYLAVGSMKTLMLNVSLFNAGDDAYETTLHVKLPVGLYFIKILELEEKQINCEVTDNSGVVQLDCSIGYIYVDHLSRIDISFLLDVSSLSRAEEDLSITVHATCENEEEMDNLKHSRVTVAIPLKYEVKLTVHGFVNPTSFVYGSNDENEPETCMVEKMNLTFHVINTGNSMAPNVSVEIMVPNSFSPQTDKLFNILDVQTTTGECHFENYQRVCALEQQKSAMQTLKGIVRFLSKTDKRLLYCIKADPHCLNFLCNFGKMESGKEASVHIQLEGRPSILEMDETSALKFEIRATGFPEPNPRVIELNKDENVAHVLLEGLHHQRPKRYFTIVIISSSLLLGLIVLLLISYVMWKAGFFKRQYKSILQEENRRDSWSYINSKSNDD
T1 sequence (P05556 21-798): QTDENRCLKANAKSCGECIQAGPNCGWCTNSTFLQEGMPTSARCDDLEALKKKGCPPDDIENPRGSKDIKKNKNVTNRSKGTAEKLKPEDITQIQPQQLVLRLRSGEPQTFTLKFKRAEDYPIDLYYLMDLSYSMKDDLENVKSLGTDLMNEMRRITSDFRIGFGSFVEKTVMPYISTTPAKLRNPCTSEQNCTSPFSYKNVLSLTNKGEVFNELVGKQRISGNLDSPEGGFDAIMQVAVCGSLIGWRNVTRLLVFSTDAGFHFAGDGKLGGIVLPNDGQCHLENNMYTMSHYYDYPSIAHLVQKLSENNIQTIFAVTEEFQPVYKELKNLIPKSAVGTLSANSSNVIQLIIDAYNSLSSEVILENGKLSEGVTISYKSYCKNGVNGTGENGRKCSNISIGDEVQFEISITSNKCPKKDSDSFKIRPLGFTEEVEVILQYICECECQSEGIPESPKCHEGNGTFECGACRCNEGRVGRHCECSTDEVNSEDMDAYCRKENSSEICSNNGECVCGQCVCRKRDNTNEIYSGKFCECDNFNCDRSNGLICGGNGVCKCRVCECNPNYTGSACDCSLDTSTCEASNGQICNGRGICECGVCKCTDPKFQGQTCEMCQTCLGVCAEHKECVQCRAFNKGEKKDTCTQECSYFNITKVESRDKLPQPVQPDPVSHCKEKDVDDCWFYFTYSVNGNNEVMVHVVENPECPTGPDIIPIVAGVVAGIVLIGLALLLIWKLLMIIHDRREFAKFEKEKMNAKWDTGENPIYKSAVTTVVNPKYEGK
Kind of assay: Inhibition of adhesion of calcein AM-labeled Ramos cells to CS1 (fibronectin) peptide-conjugated ovalbumin. Type of assay: cell-based. The note with it: Ramos; Table 2; compound at a concentration of 100 μM; read-out: % A (percent inhibition of cell adhesion). The protocol: The ability of compounds of the present invention to inhibit binding is determined by a procedure in which a 26-amino acid peptide containing the CS1 sequence of fibronectin with an N-terminal Cys ([…]) was coupled to maleimide activated ovalbumin. Bovine serum albumin (BSA) and CS1 conjugated ovalbumin were coated onto 96-well polystyrene plates at 0.5 mg/ml in TBS (50 mM Tris, pH 7.5; 150 mM NaCl) at 4° C. for 16 hours. The plates were washed three times with TBS and blocked with TBS containing 3% BSA at room temperature for 4 hours. Blocked plates were washed three times in binding buffer (TBS; 1 mM MgCl2; 1 mM CaCl2; 1 mM MnCl2) prior to assay. Ramos cells fluorescently labeled with calcein AM were resuspended in binding buffer (10^7 cells/ml) and diluted 1:2 with same buffer with or without compound. The cells were added immediately to the wells (2.5×10^5 cells/well) and incubated for 30 minutes at 37° C. Following three washes with binding buffer, adherent cells were lysed and quantitated using a fluorometer. IC50 is defined as the dose required to give 50% inhibition. MS in Table 3 stands for Mass Spec. nd stands for not determined in the Tables. A stands for inhibition in Table 2, and the percent inhibition indicates the inhibition of cell adhesion when compound is included in the assay at a concentration of 100 μM. The lower the IC50 value and the greater the percentage of inhibition, the more efficient the compound is at prevention of cell adhesion.
In the case of `CCCC[C@@H](C(=O)N[C@@H](CC(=O)O)c1ccc2c(c1)OCO2)N1CCN(Cc2cccs2)C1=O` [(3S)-3-(1,3-benzodioxol-5-yl)-3-({(2S)-2-[2-oxo-3-(2-thienylmethyl)-1-imidazolidinyl]hexanoyl}amino)propanoic acid], the inhibition at 100 µM was 100%.

Still in this assay, the particulars now being: Table 2; Ramos cell adhesion to CS1-conjugated ovalbumin, 30 minutes at 37° C.
As to `CCCC[C@@H](C(=O)N[C@@H](CC(=O)O)c1ccc2c(c1)OCO2)N1CCN(Cc2cccs2)C1=O` [(3S)-3-(1,3-benzodioxol-5-yl)-3-({(2S)-2-[2-oxo-3-(2-thienylmethyl)-1-imidazolidinyl]hexanoyl}amino)propanoic acid], the 50% inhibitory concentration (IC50) was 150 nM.

The same assay, now with this note: Table 3; Ramos cell adhesion to CS1-conjugated ovalbumin, 30 minutes at 37° C.
With `CCCC[C@@H](C(=O)N[C@@H](CC(=O)O)c1ccc2c(c1)OCO2)n1c(=O)c2ccccc2n(Cc2ccccc2)c1=O` [(3S)-3-(1,3-benzodioxol-5-yl)-3-({(2S)-2-[2,4-dioxo-1-(phenylmethyl)-1,4-dihydro-3(2H)-quinazolinyl]hexanoyl}amino)propanoic acid], the IC50 is 100 nM.

Regarding `CCCC[C@@H](C(=O)N[C@@H](CC(=O)O)c1ccc2c(c1)OCO2)N1CC(=O)N(Cc2cccs2)c2ccccc2C1=O` [(3S)-3-(1,3-benzodioxol-5-yl)-3-({(2S)-2-[2,5-dioxo-1-(2-thiophenylmethyl)-1,2,3,5-tetrahydro-4H-1,4-benzodiazepin-4-yl]hexanoyl}amino)propanoic acid], the IC50 is 1500 nM.

Take `CCCC[C@@H](C(=O)N[C@@H](CC(=O)O)c1ccc2c(c1)OCO2)n1cccc(C(=O)c2ccccc2)c1=O` [(3S)-3-(1,3-benzodioxol-5-yl)-3-({(2S)-2-[2-oxo-3-(phenylcarbonyl)-1(2H)-pyridinyl]hexanoyl}amino)propanoic acid]: the IC50 is 550 nM.

In the case of `CCCC[C@@H](C(=O)N[C@@H](CC(=O)O)c1ccc2c(c1)OCO2)n1cccc(Cc2ccccc2)c1=O` [(3S)-3-(1,3-benzodioxol-5-yl)-3-({(2S)-2-[2-oxo-3-(phenylmethyl)-1(2H)-pyridinyl]hexanoyl}amino)propanoic acid], the IC50 is 4 nM.

Consider `CCCC[C@@H](C(=O)N[C@@H](CC(=O)O)c1ccc2c(c1)OCO2)N1CC(=O)N(Cc2cccs2)[C@@H](Cc2ccccc2)C1=O` [(3S)-3-(1,3-benzodioxol-5-yl)-3-({(2S)-2-[(3S)-2,5-dioxo-3-(phenylmethyl)-4-(2-thiophenylmethyl)tetrahydro-1(2H)-pyrazinyl]hexanoyl}amino)propanoic acid], for which the half-inhibitory concentration (IC50) is 6000 nM.

The assay is the same for the next values; noted with them: Table 4; Ramos cell adhesion to CS1-conjugated ovalbumin, 30 minutes at 37° C.
As for `CCCCC(C(=O)N[C@@H](CC(=O)O)c1ccc2c(c1)OCO2)n1cccc(Cc2ccccc2)c1=O` (stereo partly drawn) [(3S)-3-(1,3-benzodioxol-5-yl)-3-{[2-(3-benzyl-2-oxopyridin-1(2H)-yl)hexanoyl]amino}propanoic acid], the 50% inhibitory concentration (IC50) is 30 nM.

Take `CCCC[C@H](C(=O)N[C@@H](CC(=O)O)c1ccc2c(c1)OCO2)n1cc(C)c(O)c(Cc2ccccc2)c1=O` [(3S)-3-(1,3-benzodioxol-5-yl)-3-{[(2R)-2-(3-benzyl-4-hydroxy-5-methyl-2-oxopyridin-1(2H)-yl)hexanoyl]amino}propanoic acid]: the IC50 is 2000 nM.

With `CCCC[C@@H](C(=O)N[C@@H](CC(=O)O)c1ccc2c(c1)OCO2)n1cc(C)c(O)c(Cc2ccccc2)c1=O` [(3S)-3-(1,3-benzodioxol-5-yl)-3-{[(2S)-2-(3-benzyl-4-hydroxy-5-methyl-2-oxopyridin-1(2H)-yl)hexanoyl]amino}propanoic acid], the IC50 was 200 nM.

As for `CCCCC(C(=O)N[C@@H](CC(=O)O)c1ccc2ccn(C)c2c1)n1cc(C)cc(Cc2ccccc2)c1=O` (stereo partly drawn) [(3S)-3-(1-methyl-1H-indol-6-yl)-3-({2-[5-methyl-2-oxo-3-(phenylmethyl)-1(2H)-pyridinyl]hexanoyl}amino)propanoic acid], the IC50 was 10 nM.

With `CCCCC(C(=O)N[C@@H](CC(=O)O)c1ccc2c(c1)CCC2)n1cc(C)cc(Cc2ccccc2)c1=O` (stereo partly drawn) [(3S)-3-(2,3-dihydro-1H-inden-5-yl)-3-({2-[5-methyl-2-oxo-3-(phenylmethyl)-1(2H)-pyridinyl]hexanoyl}amino)propanoic acid], the concentration for half-maximal inhibition (IC50) was 63 nM.

Turning to `CCCCC(C(=O)N[C@@H](CC(=O)O)c1ccc2c(c1)CCC2)n1cc(C)cc(Cc2ccc3ccccc3c2)c1=O` (stereo partly drawn) [(3S)-3-(2,3-dihydro-1H-inden-5-yl)-3-({2-[5-methyl-3-(2-naphthalenylmethyl)-2-oxo-1(2H)-pyridinyl]hexanoyl}amino)propanoic acid], the concentration for half-maximal inhibition (IC50) was 283 nM.
